Patent US20160145300A1, “ARTIFICIAL DECAPEPTIDE, MEDICATION AND METHOD OF INDUCING BREEDING OF CRUSTACEANS” (National Pingtung University of Science and technology, priority 2014, published 2016)
Marks after values point to notes of the source that are not given here.

Columns and labels:
Assay type in all cases: in vivo
[1] = tested on: female shrimps (Litopenaeus vannamei); assay: spawning times of female shrimps after administration
Experimental: (§1) After these, an effective amount of the artificially decapeptide is administrated to a crustacean, wherein, the effective amount of the artificially decapeptide may be 10 nanograms (ng) to 1000 ng, preferably 50 ng, per gram of body weight for each administrating. In one embodiment of the present embodiment a sustainable releasing dosage of the artificial decapeptide may be optionally prepared and administrated to the crustacean, so as to simplify the administration process. A method of preparing the sustainable releasing dosage of the artificially decapeptide, for example, may include formulating a great amount of the artificially decapeptide in an excipient, such as an excipient including oil. For example, 100 ng to 2000 ng of the artificially decapeptide may be formulated in 50 microliter (μl) to 200 μl of the excipient. With such arrangement, while the sustainable releasing dosage of the artificially decapeptide is administrated to the crustacean, the artificially decapeptide therein may be allowed to progressively release in the crustacean, thereby extending the inducing effect to the crustacean. Thus, in another embodiment of the present invention, the sustainable releasing dosage of the artificially decapeptide may be administrated to the crustacean every three to six months, preferably every four months, but not limited thereto. In other embodiment of the present invention, the artificially decapeptide may also be firstly formulated in saline, to forma solvent, and then, mixed with the excipient, wherein a volume ratio between the solvent and the excipient may be 1:1 to 1:3. Furthermore, in another embodiment, the excipient may include mineral oil, such as […] or incomplete adjuvant; vegetable oil, such as peanut oil, olive oil or coconut oil; fat adhesive, such as methylcellulose; or a composite of the aforementioned oil.
In the present test, the artificial decapeptide of the present invention is exemplified on numbers of Litopenaeus vannamei (Decapoda: Macrura). […]
(§2) In the present test, the artificial decapetide is firstly formulated in the aforementioned sustainable releasing dosage and then administrated to each Litopenaeus vannamei. After that, the spermatophore development of each male shrimp is determined and recorded every 4 days after the administration, through observing the external characteristics spermatophore. Also, the spermatophore weight, as well as the sperm count, is precisely measured 44 days after the administration. On the other hand, the ovarian development of each female shrimp is also determined and recorded weekly 2-4 months after the administration through observing the external characteristics and the maturity of ovarian. Furthermore, the spawning times of each female shrimp may be also recorded. […]

[2] = tested on: female shrimps (Litopenaeus vannamei); assay: ovarian development of female shrimps after administration; conditions: recorded weekly 2-4 months after the administration, percentage relative to overall Litopenaeus vannamei in the test
Experimental: as §1
In the present test, the artificial decapeptide of the present invention is exemplified on numbers of Litopenaeus vannamei (Decapoda: Macrura). However, people in the art should easily realize the present invention is not limited thereto.
In the present test, the artificial decapetide is firstly formulated in the aforementioned sustainable releasing dosage and then administrated to each Litopenaeus vannamei. After that, the spermatophore development of each male shrimp is determined and recorded every 4 days after the administration, through observing the external characteristics spermatophore. Also, the spermatophore weight, as well as the sperm count, is precisely measured 44 days after the administration. On the other hand, the ovarian development of each female shrimp is also determined and recorded weekly 2-4 months after the administration through observing the external characteristics and the maturity of ovarian. Furthermore, the spawning times of each female shrimp may be also recorded. Please refer to TABLEs 1-3 and FIGS. 1-2, which illustrate gonadal promoting effects of the artificial decapeptide either on male or female shrimps (Litopenaeus vannamei). Wherein, TABLE 1 and FIGS. 1-2 show the maturity of spermatophore in male shrimps, including the development stage, spermatophore weight and sperm count per spermatophore, after the artificial decapeptide is administrated, in comparison with untreated male shrimps (control; marked as B in FIGS. 1-2), respectively.

[3] = tested on: male shrimps (Litopenaeus vannamei); assay: maturity of spermatophore in male shrimps after administration of sustainable releasing dosage
Experimental: After these, an effective amount of the artificially decapeptide is administrated to a crustacean, wherein, the effective amount of the artificially decapeptide may be 10 nanograms (ng) to 1000 ng, preferably 50 ng, per gram of body weight for each administrating. In one embodiment of the present embodiment a sustainable releasing dosage of the artificial decapeptide may be optionally prepared and administrated to the crustacean, so as to simplify the administration process. A method of preparing the sustainable releasing dosage of the artificially decapeptide, for example, may include formulating a great amount of the artificially decapeptide in an excipient, such as an excipient including oil. For example, 100 ng to 2000 ng of the artificially decapeptide may be formulated in 50 microliter (μl) to 200 μl of the excipient. With such arrangement, while the sustainable releasing dosage of the artificially decapeptide is administrated to the crustacean, the artificially decapeptide therein may be allowed to progressively release in the crustacean, thereby extending the inducing effect to the crustacean. […]
as §2

[4] = 44 days after the administration

Substance: artificial decapeptide: Synthetic 10-amino-acid peptide based on chicken GnRH-II (SEQ ID NO: 2); N-terminal Glu and C-terminal Gly unblocked (H-EHWSHGWYPG-OH; listed as Gallus gallus)
- percentage of female shrimps with spawning times 0 ([1]; 0 spawnings, 8-16 weeks after administrating, percentage relative to overall Litopenaeus vannamei in the test): 20%^b
- percentage of female shrimps with spawning times 3 ([1]; 3 spawnings, 8-16 weeks after administrating, percentage relative to overall Litopenaeus vannamei in the test): 0%^b
- effective period ([1]; compared with current techniques (around one month)): between two and four
- number of spawnings induced ([1]; compared with current techniques (fewer times of spawning)): four
- percentage of female shrimps at ovarian development stage 0 ([2]; stage 0): 0%^b
- percentage of female shrimps at ovarian development stage 0.5 ([2]; stage 0.5): 20%^b
- percentage of female shrimps at ovarian development stage 1 ([2]; stage 1): 0%^b
- percentage of female shrimps at ovarian development stage 1.5 ([2]; stage 1.5): 0%^b
- percentage of female shrimps at ovarian development stage 2 ([2]; stage 2): 0%^b
- percentage of female shrimps at ovarian development stage 2.5 ([2]; stage 2.5): 0%^b
- percentage of female shrimps at ovarian development stage 3 ([2]; stage 3): 0%^b
- sperm count per spermatophore [3, 4]: 68.5 ± 18.14 10^5/per spermatophore
- spermatophore weight [3, 4]: 0.0217 ± 0.007 g
- spermatophore development stage reached ([3]; in 44 days after the administration): 2.5
